Results taken from patent US12295936B2, “Immunomodulating urea azalides” (Zoetis Services LLC, priority 2020, dated 2025).
Where two headings read alike, the source gives them in different places.

Assays:
TNF-α = assay: LPS-stimulated whole bovine blood assay, MSD cytokine detection; format: cell-based; settings: LPS-stimulated bovine whole blood, read-out: TNF-α (IC50 μM)
Procedure: (§1) Therefore, a fresh whole bovine blood assay was developed with LPS as a stimulant (TLR-4 agonist) and with IL-1β and TNF-α as the read-out. Compounds of the invention were evaluated against a positive control for their ability to inhibit LPS-induced IL-1β and TNF-α as an overall evaluation of relative potency and modulation of target pathways (Table 6).
In the bovine whole blood in vitro screening assay the inhibition of TNFα as induced by stimulation by lipopolysaccharide (LPS) and as measured by half the maximal inhibitory concentration (IC50) is recognized as the primary biomarker of immunomodulation potency upon pretreatment with the compounds of the invention. IL-1β is a mediator of the inflammation response and is involved in a number of cellular activities including proliferation, differentiation and apoptosis. IL-1β is also released upon cellular stress or cytotoxicity or upon TLR stimulation. In the bovine whole blood assay the stimulation of IL-1β release upon increasing concentration of test compound is seen as a potential cellular toxicity signal as induced by the test compound. In order to estimate a therapeutic index from the in vitro assay a differential between the TNFα IC50 (immunomodulation potency) versus the perceived cellular toxicity concentration (IL-1β release or overstimulation) was utilized.

IL-1β = assay: as above; format: cell-based; settings: overstimulation of IL-1β, LPS-stimulated bovine whole blood
Procedure: as §1, with “The effect of multiple cytokines was not easily quantified using single cell types. Therefore,” for “Therefore,”
In order to correlate RNA sequencing data to cytokine changes the whole blood assay was utilized. […] The enhancement result represents an overall stimulation of cytokine levels due to cellular stress or potential toxicity with increasing concentrations of the compound, representing a typical bell shape response curve for immunomodulatory activity.
In the bovine whole blood in vitro screening assay the inhibition of TNFα as induced by stimulation by lipopolysaccharide (LPS) and as measured by half the maximal inhibitory concentration (IC50) is recognized as the primary biomarker of immunomodulation potency upon pretreatment with the compounds of the invention.

[1] = tested on: BRD pathogens, M. haemolytica and P. multocida; assay: MIC screening panel of BRD pathogens (antibacterial / non-antibacterial); settings: read-out: antibacterial / non-antibacterial (MIC for the BRD pathogens)

Row | IC50 (TNF-α) | IC50 (TNF-α; Bos taurus) | SMILES | IL-1β OS of LPS (IL-1β) | MIC [1]
1 | 32 µM |  | CC[C@H]1OC(=O)[C@H](C)[C@@H](O[C@H]2C[C@@](C)(OC)[C@](C)(O)[C@H](C)O2)[C@H](C)[C@@H](O[C@@H]2O[C@H](C)C[C@H](N(C)C(=O)N(C)c3ccccc3)[C@H]2O)[C@](C)(O)C[C@@H](C)CN[C@H](C)[C@@H](O)[C@]1(C)O [Example B-1a, 1-((2S,3R,4S,6R)-2-(((2R,3S,4R,5R,8R,10R,11R,12S,13S,4R)-2-ethyl-3,4,10-trihydroxy-13-(((2R,4R,5R,6S)-5-hydroxy-4-methoxy-4,5,6-trimethyltetrahydro-2H-pyran-2-yl)oxy)-3,5,8,10,12,14-hexamethyl-11S-oxo-1-oxa-6-azacyclopentadecan-11-yl)oxy)-3-hydroxy-6-methyltetrahydro-2H-pyran-4-yl)-1,3-dimethyl-3-phenylurea] | 40 µM | 
2 |  | 45 µM | CCCNC[C@]1(O)[C@H](C)O[C@@H](O[C@H]2[C@H](C)[C@@H](O[C@@H]3O[C@H](C)C[C@H](N(C)C(=O)N(C)Cc4ccccc4)[C@H]3O)[C@](C)(O)C[C@@H](C)CN[C@H](C)[C@@H](O)[C@](C)(O)[C@@H](CC)OC(=O)[C@@H]2C)C[C@@]1(C)OC [Example H-40, 1-benzyl-3-((2S,3R,4S,6R)-2-(((2R,3S,4R,5R,8R,10R,11R,12S,13S,14R)-2-ethyl-3,4,10-trihydroxy-13-(((2R,4R,5S,6S)-5-hydroxy-4-methoxy-4,6-dimethyl-5-((propylamino)methyl)tetrahydro-2H-pyran-2-yl)oxy)-3,5,8,10,12,14-hexamethyl-15-oxo-1-oxa-6-azacyclopentadecan-11-yl)oxy)-3-hydroxy-6-methyltetrahydro-2H-pyran-4-yl)-1,3-dimethylurea] | 40 µM | > 64 µg/mL
3 |  | > 250 µM | CCCNC[C@]1(O)[C@H](C)O[C@@H](O[C@H]2[C@H](C)[C@@H](O[C@@H]3O[C@H](C)C[C@H](N(C)C(=O)N(C)c4cnccn4)[C@H]3O)[C@](C)(O)C[C@@H](C)CN[C@H](C)[C@@H](O)[C@](C)(O)[C@@H](CC)OC(=O)[C@@H]2C)C[C@@]1(C)OC [Example H-46, 1-((2S,3R,4S,6R)-2-(((2R,3S,4R,5R,8R,10R,11R,12S,13S,14R)-2-ethyl-3,4,10-trihydroxy-13-(((2R,4R,5S,6S)-5-hydroxy-4-methoxy-4,6-dimethyl-5-((propylamino)methyl)tetrahydro-2H-pyran-2-yl)oxy)-3,5,8,10,12,14-hexamethyl-15-oxo-1-oxa-6-azacyclopentadecan-11-yl)oxy)-3-hydroxy-6-methyltetrahydro-2H-pyran-4-yl)-1,3-dimethyl-3-(pyrazin-2-yl)urea] | 100 µM | 
4 |  | 9 µM | CCCNC[C@]1(O)[C@H](C)O[C@@H](O[C@H]2[C@H](C)[C@@H](O[C@@H]3O[C@H](C)C[C@H](N(C)C(=O)N(CC(F)(F)F)c4ccccc4)[C@H]3O)[C@](C)(O)C[C@@H](C)CN[C@H](C)[C@@H](O)[C@](C)(O)[C@@H](CC)OC(=O)[C@@H]2C)C[C@@]1(C)OC [Example H-54, 1-((2S,3R,4S,6R)-2-(((2R,3S,4R,5R,8R,10R,11R,12S,13S,14R)-2-ethyl-3,4,10-trihydroxy-13-(((2R,4R,5S,6S)-5-hydroxy-4-methoxy-4,6-dimethyl-5-((propylamino)methyl)tetrahydro-2H-pyran-2-yl)oxy)-3,5,8,10,12,14-hexamethyl-15-oxo-1-oxa-6-azacyclopentadecan-11-yl)oxy)-3-hydroxy-6-methyltetrahydro-2H-pyran-4-yl)-1-methyl-3-phenyl-3-(2,2,2-trifluoroethyl)urea] | 6 µM | > 64 µg/mL
5 |  | 30 µM | CCCNC[C@]1(O)[C@H](C)O[C@@H](O[C@H]2[C@H](C)[C@@H](O[C@@H]3O[C@H](C)C[C@H](N(C)C(=O)Nc4ccc(C#N)cc4)[C@H]3O)[C@](C)(O)C[C@@H](C)CN[C@H](C)[C@@H](O)[C@](C)(O)[C@@H](CC)OC(=O)[C@@H]2C)C[C@@]1(C)OC [Example H-77, 3-(4-cyanophenyl)-1-((2S,3R,4S,6R)-2-(((2R,3S,4R,5R,8R,10R,11R,12S,13S,14R)-2-ethyl-3,4,10-trihydroxy-13-(((2R,4R,5S,6S)-5-hydroxy-4-methoxy-4,6-dimethyl-5-((propylamino)methyl)tetrahydro-2H-pyran-2-yl)oxy)-3,5,8,10,12,14-hexamethyl-15-oxo-1-oxa-6-azacyclopentadecan-11-yl)oxy)-3-hydroxy-6-methyltetrahydro-2H-pyran-4-yl)-1-methylurea] | 200 µM | > 64 µg/mL
6 |  | 40 µM | CCCNC[C@]1(O)[C@H](C)O[C@@H](O[C@H]2[C@H](C)[C@@H](O[C@@H]3O[C@H](C)C[C@H](N(C)C(=O)N4CCc5ccccc54)[C@H]3O)[C@](C)(O)C[C@@H](C)CN[C@H](C)[C@@H](O)[C@](C)(O)[C@@H](CC)OC(=O)[C@@H]2C)C[C@@]1(C)OC [Example I-3, N-((2S,3R,4S,6R)-2-(((2R,3S,4R,5R,8R,10R,11R,12S,13S,14R)-2-ethyl-3,4,10-trihydroxy-13-(((2R,4R,5S,6S)-5-hydroxy-4-methoxy-4,6-dimethyl-5-((propylamino)methyl)tetrahydro-2H-pyran-2-yl)oxy)-3,5,8,10,12,14-hexamethyl-15-oxo-1-oxa-6-azacyclopentadecan-11-yl)oxy)-3-hydroxy-6-methyltetrahydro-2H-pyran-4-yl)-N-methylindoline-1-carboxamide] | 32 µM | 
7 |  |  | CC[C@H]1OC(=O)[C@H](C)[C@@H](O[C@H]2C[C@@](C)(OC)[C@](O)(CN3CCN(c4ncccn4)CC3)[C@H](C)O2)[C@H](C)[C@@H](O[C@@H]2O[C@H](C)C[C@H](N(C)C(=O)N(C)c3ccccc3)[C@H]2O)[C@](C)(O)C[C@@H](C)CN[C@H](C)[C@@H](O)[C@]1(C)O [Example J-13, 1-((2S,3R,4S,6R)-2-(((2R,3S,4R,5R,8R,10R,11R,12S,13S,14R)-2-ethyl-3,4,10-trihydroxy-13-(((2R,4R,5S,6S)-5-hydroxy-4-methoxy-4,6-dimethyl-5-((4-(pyrimidin-2-yl)piperazin-1-yl)methyl)tetrahydro-2H-pyran-2-yl)oxy)-3,5,8,10,12,14-hexamethyl-15-oxo-1-oxa-6-azacyclopentadecan-11-yl)oxy)-3-hydroxy-6-methyltetrahydro-2H-pyran-4-yl)-1,3-dimethyl-3-phenylurea] |  | > 64 µg/mL
8 |  |  | CC[C@H]1OC(=O)[C@H](C)[C@@H](O[C@H]2C[C@@](C)(OC)[C@](O)(CN3CCC3)[C@H](C)O2)[C@H](C)[C@@H](O[C@@H]2O[C@H](C)C[C@H](N(C)C(=O)N(C)c3ccccc3)[C@H]2O)[C@](C)(O)C[C@@H](C)CN[C@H](C)[C@@H](O)[C@]1(C)O [Example J-22, 1-((2S,3R,4S,6R)-2-(((2R,3S,4R,5R,8R,10R,11R,12S,13S,14R)-13-(((2R,4R,5S,6S)-5-(azetidin-1-ylmethyl)-5-hydroxy-4-methoxy-4,6-dimethyltetrahydro-2H-pyran-2-yl)oxy)-2-ethyl-3,4,10-trihydroxy-3,5,8,10,12,14-hexamethyl-15-oxo-1-oxa-6-azacyclopentadecan-11-yl)oxy)-3-hydroxy-6-methyltetrahydro-2H-pyran-4-yl)-1,3-dimethyl-3-phenylurea] |  | > 64 µg/mL
9 |  |  | CC[C@H]1OC(=O)[C@H](C)[C@@H](O[C@H]2C[C@@](C)(OC)[C@](O)(Cn3cccn3)[C@H](C)O2)[C@H](C)[C@@H](O[C@@H]2O[C@H](C)C[C@H](N(C)C(=O)N(C)c3ccccc3)[C@H]2O)[C@](C)(O)C[C@@H](C)CN[C@H](C)[C@@H](O)[C@]1(C)O [Example J-23, 1-((2S,3R,4S,6R)-2-(((2R,3S,4R,5R,8R,10R,11R,12S,13S,14R)-13-(((2R,4R,5S,6S)-5-((1H-pyrazol-1-yl)methyl)-5-hydroxy-4-methoxy-4,6-dimethyltetrahydro-2H-pyran-2-yl)oxy)-2-ethyl-3,4,10-trihydroxy-3,5,8,10,12,14-hexamethyl-15-oxo-1-oxa-6-azacyclopentadecan-11-yl)oxy)-3-hydroxy-6-methyltetrahydro-2H-pyran-4-yl)-1,3-dimethyl-3-phenylurea] |  | > 64 µg/mL
